{
  "source": "paper PMC6934599",
  "about": "“Phenoxyethyl Piperidine/Morpholine Derivatives as PAS and CAS Inhibitors of Cholinesterases: Insights for Future Drug Design” (Scientific Reports, 2019)",
  "key": {"[1]": {"target": "T1, AChE (E.C.3.1.1.7, from electric eel) (Electrophorus electricus, UniProt O42275)", "T1 construct": "purchased Sigma-Aldrich and Fluka", "T1 sequence (O42275 24-633)": "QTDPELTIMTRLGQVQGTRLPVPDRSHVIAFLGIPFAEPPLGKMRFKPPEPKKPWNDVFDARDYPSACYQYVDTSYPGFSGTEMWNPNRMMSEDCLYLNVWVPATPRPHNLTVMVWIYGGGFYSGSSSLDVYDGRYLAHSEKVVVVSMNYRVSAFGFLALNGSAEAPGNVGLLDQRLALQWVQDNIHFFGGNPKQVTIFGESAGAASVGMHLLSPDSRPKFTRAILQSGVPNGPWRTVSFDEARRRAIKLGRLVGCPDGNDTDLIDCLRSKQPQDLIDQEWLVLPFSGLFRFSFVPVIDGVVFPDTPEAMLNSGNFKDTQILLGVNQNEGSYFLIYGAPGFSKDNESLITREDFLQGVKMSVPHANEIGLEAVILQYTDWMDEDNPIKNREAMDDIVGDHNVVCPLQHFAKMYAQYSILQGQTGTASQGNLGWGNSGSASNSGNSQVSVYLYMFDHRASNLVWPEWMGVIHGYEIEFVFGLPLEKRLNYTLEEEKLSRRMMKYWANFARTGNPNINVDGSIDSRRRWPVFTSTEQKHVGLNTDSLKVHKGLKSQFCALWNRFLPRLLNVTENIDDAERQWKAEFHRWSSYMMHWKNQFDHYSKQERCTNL", "assay": "biochemical", "type": "biochemical", "details": "for cholinesterase inhibitory activity against eeAChE: in words", "experimental": "(§1) All the synthesized compounds were screened for their cholinesterase activity by Ellman’s spectrophotometric method with a slight modification. […] In brief, enzymatic reactions were accomplished in 96-well plates with total volume of 270 µL. Each well contained 0.1 M phosphate buffer (pH 7.4), 0.08 U/mL AChE or 0.05 U/mL BuChE and 0.3 mM of DTNB. In order to considering the influence of DMSO percentage on the enzymatic activity of AChE, different concentrations of the test sample were prepared in final concentrations of 0.2% DMSO. Then contents were incubated for 15 min at room temperature. The reaction was started with the addition of 20 µL of 0.45 mM substrate (ATCI/BTCI) into premixed enzyme/buffer/inhibitor mixture and monitored by using plate reader Synergy HT, Biotek, USA at 412 nm. The activity in the absence of sample compounds was considered as a blank. The percentage inhibition was calculated from (blank – test sample)/blank × 100."}, "[2]": {"target": "T2, BuChE (E.C.3.1.1.8, from equine serum) (Equus caballus, UniProt P81908)", "T2 construct": "BuChE (E.C.3.1.1.8, from equine serum); purchased Sigma-Aldrich and Fluka; host or cells: equine serum", "T2 sequence (P81908 whole entry)": "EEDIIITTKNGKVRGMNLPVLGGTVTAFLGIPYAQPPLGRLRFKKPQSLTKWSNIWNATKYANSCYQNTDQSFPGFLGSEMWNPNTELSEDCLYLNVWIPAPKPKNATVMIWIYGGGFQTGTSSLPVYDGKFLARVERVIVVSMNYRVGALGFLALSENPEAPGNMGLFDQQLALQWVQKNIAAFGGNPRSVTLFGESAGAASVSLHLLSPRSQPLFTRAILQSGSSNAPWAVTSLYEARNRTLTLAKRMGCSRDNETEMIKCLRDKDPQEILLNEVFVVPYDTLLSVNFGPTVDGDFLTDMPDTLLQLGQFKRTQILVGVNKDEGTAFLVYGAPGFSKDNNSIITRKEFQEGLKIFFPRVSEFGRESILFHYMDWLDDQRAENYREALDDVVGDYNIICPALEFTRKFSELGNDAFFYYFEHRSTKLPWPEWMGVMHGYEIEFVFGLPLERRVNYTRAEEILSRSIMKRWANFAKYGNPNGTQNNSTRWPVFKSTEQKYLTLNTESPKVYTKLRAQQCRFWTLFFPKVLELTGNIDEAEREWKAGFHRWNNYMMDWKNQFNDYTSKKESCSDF", "assay": "biochemical", "type": "biochemical", "details": "for cholinesterase inhibitory activity against eqBuChE: in words; for inhibitory activity for eqBuChE: up to 100 µM concentrations; for IC50: modified Ellman's method, read-out: eqBuChE IC50", "experimental": "as §1"}, "eeAChE": {"target": "T3, eeAChE (Electrophorus electricus, UniProt O42275)", "T3 construct": "purchased Sigma-Aldrich and Fluka", "T3 sequence (O42275 24-633)": "as the sequence (O42275 24-633) above", "assay": "Kinetic study of eeAChE inhibition (Lineweaver-Burk)", "type": "biochemical", "experimental": "Two fixed concentrations of the inhibitor (IC50, 2IC50) were chosen and for each concentration, the initial velocity (V) of the substrate ATCI/BTCI hydrolysis was measured at different concentrations in the range of 0–1.5 mM. […] Furthermore, Ki value was obtained by extrapolating the slopes of Lineweaver-Burk plots against inhibitor concentrations (Fig. 3B).\n(§2) To determine the mechanisms of action of 5c and 7c, a series of experiments were performed at different concentrations of the substrate ATCI/BTCI. The inhibitor concentrations were (IC50, 2IC50). Substrates ATCI/BTCI concentrations were 0, 0.13, 0.3, 0.45, 0.675, 1.01 and 1.51 mM in all kinetic studies. Pre-incubation and measurement time were the same as reported in the perivous assay protocol. Kinetic characterization analysis was done spectrometrically at 412 nm."}, "eqBuChE": {"target": "T4, eqBuChE (Equus caballus, UniProt P81908)", "T4 construct": "BuChE (E.C.3.1.1.8, from equine serum); purchased Sigma-Aldrich and Fluka; host or cells: equine serum", "T4 sequence (P81908 whole entry)": "as the sequence (P81908 whole entry) above", "assay": "Kinetic study of eqBuChE inhibition (Lineweaver-Burk)", "type": "biochemical", "experimental": "as §2"}, "Aβ peptide": {"tested_on": "Aβ peptide", "details": "cited from earlier work"}, "AChE": {"tested_on": "AChE", "details": "cited from earlier work"}, "[3]": {"details": "modified Ellman's method, read-out: eeAChE IC50"}},
  "note": "“Also recorded” adds a separate entry of the source. Like-named read-outs stand apart in the source and are kept apart here.",
  "data": [
    {"smiles": "O=Cc1ccc(OCCN2CCOCC2)cc1", "note": "[3b, 4-(2-morpholinoethoxy)benzaldehyde]", "values": [
      {"measurement": "cholinesterase inhibitory activity against eeAChE", "setting": "[1]", "result": "did not show any cholinesterase inhibitory activity"},
      {"measurement": "cholinesterase inhibitory activity against eqBuChE", "setting": "[2]", "result": "did not show any cholinesterase inhibitory activity"}
    ]},
    {"smiles": "N#CC(C#N)=Cc1ccc(OCCN2CCCCC2)cc1", "note": "[5a]", "values": [
      {"measurement": "IC50", "setting": "[1]", "result": "2800 ± 50", "unit": "nM"},
      {"measurement": "inhibitory activity for eqBuChE", "setting": "[2]", "result": "no inhibitory activity"}
    ]},
    {"smiles": "N#CC(C#N)=Cc1ccc(OCCN2CCOCC2)cc1", "note": "[5b]", "values": [
      {"measurement": "cholinesterase inhibitory activity against eeAChE", "setting": "[1]", "result": "did not show any cholinesterase inhibitory activity"},
      {"measurement": "cholinesterase inhibitory activity against eqBuChE", "setting": "[2]", "result": "did not show any cholinesterase inhibitory activity"}
    ]},
    {"smiles": "COC(=O)/C(C#N)=C/c1ccc(OCCN2CCCCC2)cc1", "note": "[5c]", "values": [
      {"measurement": "selectivity for AChE than for BuChE", "setting": "[1]; eeAChE vs eqBuChE IC50", "result": "more than 200 fold"},
      {"measurement": "IC50", "setting": "[1]; [3]", "result": 500, "unit": "nM"},
      {"measurement": "inhibitory activity for eqBuChE", "setting": "[2]", "result": "no inhibitory activity was found; also recorded: no inhibition"},
      {"measurement": "type of inhibition of eeAChE", "setting": "eeAChE; Lineweaver-Burk plots, substrate ATCI", "result": "mixed-type inhibition"},
      {"measurement": "Ki", "setting": "eeAChE; slopes of Lineweaver-Burk plots against inhibitor concentrations", "result": 53, "unit": "nM"}
    ]},
    {"smiles": "N#CC1=C(N)OC2=C(C(=O)CCC2)C1c1ccc(OCCN2CCCCC2)cc1", "note": "(centres unmarked) [7a, 2-Amino-5-oxo-4-(4-(2-(piperidin-1-yl)ethoxy)phenyl)-5,6,7,8-tetrahydro-4H-chromene-3-carbonitrile]", "values": [
      {"measurement": "IC50", "setting": "[1]; [3]", "result": "20400 ± 9300", "unit": "nM"},
      {"measurement": "IC50", "setting": "[2]", "result": "8100 ± 500", "unit": "nM"}
    ]},
    {"smiles": "CC1(C)CC(=O)C2=C(C1)OC(N)=C(C#N)C2c1ccc(OCCN2CCCCC2)cc1", "note": "(centres unmarked) [7c, 2-Amino-7,7-dimethyl-5-oxo-4-(4-(2-(piperidin-1-yl)ethoxy)phenyl)-5,6,7,8-tetrahydro-4H-chromene-3-carbonitrile]", "values": [
      {"measurement": "IC50", "setting": "[1]; [3]", "result": "35600 ± 3700", "unit": "nM"},
      {"measurement": "IC50", "setting": "[2]", "result": "2500 ± 600", "unit": "nM"},
      {"measurement": "type of inhibition of eqBuChE", "setting": "eqBuChE; Lineweaver-Burk plot, substrate BTCI", "result": "mixed-type of inhibition"},
      {"measurement": "Ki", "setting": "eqBuChE; plot of slopes against inhibitor concentration", "result": 156, "unit": "nM"}
    ]},
    {"smiles": "Cc1cc2c(c(=O)o1)C(c1ccc(OCCN3CCCCC3)cc1)C(C#N)=C(N)O2", "note": "(centres unmarked) [7e, 2-Amino-7-methyl-5-oxo-4-(4-(2-(piperidin-1-yl)ethoxy)phenyl)-4H,5H-pyrano[4,3-b]pyran-3-carbonitrile]", "values": [
      {"measurement": "IC50", "setting": "[1]; [3]", "result": "2100 ± 50", "unit": "nM"},
      {"measurement": "inhibitory activity for eqBuChE", "setting": "[2]", "result": "no inhibitory activity"}
    ]},
    {"smiles": "Cc1cc2c(c(=O)o1)C(c1ccc(OCCN3CCOCC3)cc1)C(C#N)=C(N)O2", "note": "(centres unmarked) [7f, 2-Amino-7-methyl-4-(4-(2-morpholinoethoxy)phenyl)-5-oxo-4H,5H-pyrano[4,3-b]pyran-3-carbonitrile]", "values": [
      {"measurement": "cholinesterase inhibitory activity against eeAChE", "setting": "[1]", "result": "did not show any cholinesterase inhibitory activity"},
      {"measurement": "cholinesterase inhibitory activity against eqBuChE", "setting": "[2]", "result": "did not show any cholinesterase inhibitory activity"}
    ]},
    {"smiles": "COc1cc2c(cc1OC)C(=O)C(CC1CCN(Cc3ccccc3)CC1)C2", "note": "(centres unmarked) [Donepezil, donepezil]", "values": [
      {"measurement": "inhibition of the aggregation of Aβ peptide", "setting": "Aβ peptide; at 100 µM, as stated in introduction section", "result": 22, "unit": "%"}
    ]},
    {"smiles": "CC[N+](C)(CC)CCC[n+]1c(-c2ccccc2)c2cc(N)ccc2c2ccc(N)cc21", "note": "[Propidium, propidium]", "values": [
      {"measurement": "IC50", "setting": "AChE", "result": "[…]"},
      {"measurement": "effect on Aβ aggregation", "setting": "Aβ peptide", "result": "reduces the aggregation"}
    ]},
    {"smiles": "CC[N+](C)(C)c1cccc(O)c1", "note": "[edrophonium]", "values": [
      {"measurement": "IC50", "setting": "AChE", "result": 5360, "unit": "nM"},
      {"measurement": "effect on Aβ aggregation", "setting": "Aβ peptide", "result": "fails to slow down the Aβ aggregation"}
    ]}
  ]
}
